Assay [1] has as its system P-TEFb/HEXIM-1 complex. Kind of assay: Glycerol gradient sedimentation analysis of P-TEFb/HEXIM-1 complex in J89GFP cells (Western blot). Format: cell-based. As to the method:
J89GFP cells were left untreated, treated with a high concentration of dactinomycin for 1 hour or with the physiological optimal concentration (0.004 μg/ml or 0.01 μg/ml) for 18 hours. Cell lysates were separated on a glycerol gradient (10-45%). Each gradient fraction was separated on a 10% SDS-PAGE gel and transferred by Western blot. […] Band densities were determined using ImageJ and are presented as relative band density. […] Band densities were determined using ImageJ and are presented as relative band density.
Ten million J89GFP or CA5 T cells were left untreated or treated with 0.004 μg/mL, 0.01 μg/ml or 1 μg/mL dactinomycin for 18 hours or 1 hour, respectively. Cells were washed twice with cold PBS, then lysed for 30 minutes on ice in lysis buffer (0.5% TritonX100, 20 mM HEPES (pH7.9), 150 mM NaCl, 20 mM KCl, 2 mM MgCl2, 1 mM DTT, 0.2 mM EDTA, and protease inhibitor cocktail (P8340; SIGMA)), followed by centrifugation at 14,000 rpm for 10 minutes. The same amount of protein lysate was fractionated on 5 ml of a 10-45% glycerol gradient in lysis buffer in a SW-Ti55 rotor (Beckman Coulter; Miami, Fla.) for 16 hours at 45,000 rpm. Fractions were resolved on 10% SDS-PAGE and transferred to polyvinylidene fluoride membrane. The antibodies used for Western blotting were rabbit anti-Cdk9 (sc-484; Santa Cruz Biotechnology; Santa Cruz, Calif.) and rabbit anti-HEXIM1 (ab25388; Abcam; Cambridge, Mass.), respectively.
To test the idea that dactinomycin primed latent HIV-1 infection for reactivation by releasing P-TEFb (a complex of CDK9 and Cyclin T1) from its complex with HEXIM-1, the latently HIV-1 infected J89GFP or CA5 T cells were treated with 1.0 μg/ml dactinomycin for 1 hour or with the physiological optimal concentration of 0.004 μg/ml for 18 hours. Cell lysates were then separated on a glycerol gradient (10-45%) to reveal possible changes in the composition of the P-TEFb/HEXIM-1 complex. […] Each gradient fraction was separated on a SDS-PAGE gel and subjected to Western blotting. […] Similar results were obtained using anti-HEXIM-1 antibody. […] The minimal dactinomycin concentration to induce a shift towards the small complex was 0.01 μg/ml of dactinomycin. […] Similar results were obtained using the latently infected CA5 T cells.
A general note: Immunoblotting shows a protein as a band on a membrane.

Assay [2] concerns NF-κB dependent promoters in 293T cells. Kind of assay: NF-κB dependent promoter constructs transfected into 293T cells (EGFP expression). Format: cell-based. On the procedure: FIGS. 6A-6C show HRF triggers suboptimal functional induction of NF-κB dependent gene expression. […] The HIV-1 reactivating kinetics were determined by stimulating CA5 T cells with optimal concentrations of HRF, phorbol 12-myristate 13-acetate (PMA) and tumor necrosis factor-α (TNF-α) and analyzing HIV-1 reactivation as a function of EGFP-expression over a period of 48 hours. Data for all agents are depicted as the percentage of EGFP-positive cells in the total cell population. […] To test the ability of HRF to mediate Tat-independent activation of the HIV-1 LTR, NOMI cells (HIV-1 reporter cell line with an integrated LTR-EGFP construct) were stimulated with increasing concentrations of PMA (0.01-10 ng/ml), TNF-α (0.003-30 μg/ml) and HRF supernatant (0.3-100 μl). The level of LTR-induction was then measured as EGFP-expression detectable after 24 hours as determined by flow cytometric analysis. Arrows indicate the concentrations at which the respective stimulus would have triggered full HIV-1 reactivation in the latently HIV-1 infected CA5 T cell line. […] 293T cells were transfected with several NF-κB dependent promoter constructs and then stimulated with either TNF-α (10 μg/ml) or HRF (25 μl). Promoter induction was measured as total EGFP expression. (NF-κB:pNF-κB-d2EGFP; LTR:HIV-1 LTR-GFP; IL-8:pIL-8 GFP; TNF:human TNF-GFP; MSCV:murine stem cell virus LTR driven GFP; no NF-κB responsive elements).
The utilized EGFP reporter virus HIV-1 NLENG1-IRES has been described elsewhere (Kutsch et al., J. Virol. 76:8776-86 (2002); Levy et al., Proc. Natl. Acad. Sci. USA 101:4204-9 (2004)). The reporter plasmid pNF-κB-d2EGFP was purchased from Clontech (Mountain View, Calif.). The LTR-GFP construct and the IL-8 reporter construct have been described earlier (Choi et al., Mol. Cell. Biol. 22:724-36 (2002)). The TNF-promoter construct was generated by cloning the human TNF-α promoter element defined by primer pair 5′-BglII; 5′-[…] […]-3′ (SEQ ID NO:2) and 3′-AgeI; 5′-[…] […]-3′ (SEQ ID NO:3) into pd2EGFP (Clontech). MSCV-GFP was generated by cloning the EGFP-gene into retroviral pMSCV-puro vector (Clontech).

*1 amine or outer side, *2 acyl side, *3 side chain or, on linkers, in order; H or OH if unused. Where a SMILES comes first, the peptide text is derived from it. Bridges are numbered along the chain shown (N, C = ends). Roman numbers before positions name the chains, in order. [ ]: non-standard residue; d: D form. Actinocin(9to1) = Cc1c2oc3c(C)ccc(C(=O)[*:1])c3nc-2c(C(=O)[*:2])c(N)c1=O; NMeV = CN[C@H](C(=O)O)C(C)C; Sar = CNCC(=O)O

On to `Cc1c2oc3c(C)ccc(C(=O)N[C@@H]4C(=O)N[C@H](C(C)C)C(=O)N5CCC[C@H]5C(=O)N(C)CC(=O)N(C)[C@@H](C(C)C)C(=O)O[C@@H]4C)c3nc-2c(C(=O)N[C@@H]2C(=O)N[C@H](C(C)C)C(=O)N3CCC[C@H]3C(=O)N(C)CC(=O)N(C)[C@@H](C(C)C)C(=O)O[C@@H]2C)c(N)c1=O` [dactinomycin] (I: T[dV]P[Sar][NMeV] / II: T[dV]P[Sar][NMeV]; ester I:1-I:C, II:1-II:C; linker I:N-II:N via Actinocin(9to1)), for which, in assay [1] (0.004 μg/ml for 18 hours), the “shift of CDK9 from large to small complex” value is “shift of CDK9 presence from the large complex to the small complex was also detected” and the “shift of HEXIM-1 towards the small complex” value is recorded as “no shift towards the small complex was observed”. Moreover, the “release of P-TEFb from its complex with HEXIM-1 (anti-CDK9)” value in assay [1] (1 μg/ml for 1 hour, J89GFP) is “quantitatively released P-TEFb”. The “minimal concentration to induce a shift of HEXIM-1 towards the small complex” value in assay [1] (18 hours) was determined as 0.01 µg/mL.

B1: HRF: flagellin polypeptide from Massilia timonae (SEQ ID NO:10), used as bacterial culture supernatant (protein)
chain: MASVINTNVPSLNSQRNLSTSQAQLNTSIQRLSSGMRINSAKDDAAGLAISDRMNSQIKGMTQATRNANDGVSMAQTAEGALSSSGDILQRIRELAVQSSNSSNSASDRKALQTEVTQLSSELNRIANTTEFNGQKLMDGTLGTANFQVGANAGQLISMTGANFNTSVYGNNQIAGDAAKAAATTSAAATGAFTISGYLGTSAAINTTDADTAKTIAASINNVTGDTGVTATARTDSFLKSAGGAHTMSLASDNSGTGEAVDISFTVGDGGDTADDYAAAISAFNAQTAKTGVTAEYDAVEKGLKLTNSAGENISLTNKAGSADIDMDTYAADGALMASALTLEAGDVGVANGRVTMDSEKSFSVAEGTDTGFELADSSALKSVAKIDISDFEGAQEAIKVADAALSAVNSQRAEYGALQSRFESAISNLSSSTENLSASRSRIVDTDFAAETAKMTRGQILQQAGTSMLAQANSLPNGVLSLLRG
Regarding B1, in assay [2], the “GFP expression driven by NF-κB responsive promoter constructs (IL-8, TNF-α, HIV-1 LTR, three consensus NF-κB sites)” value is “weak GFP expression” and the “GFP expression of construct under control of murine stem cell virus LTR (no NF-κB responsive element)” value is “Neither TNF-α nor HRF influenced GFP expression”.

Values taken from patent US20140295012A1, “LATENT HUMAN IMMUNODEFICIENCY VIRUS REACTIVATION” (priority 2011, published 2014).
